# Reference: patent publication US11111500B2, “Mutated protoporphyrinogen IX oxidase (PPX) genes” (CIBUS US LLC, priority 2010, dated 2021)
# System: potato protoplasts (protoplast derived microcalli)
# Experiment: Flumioxazin kill curve with cell suspension and shoot tip-derived protoplasts
# Type: cell-based
# Conditions: for # Of calli in 3 beads, # / # Of calli in 3 beads, %: Non treated protoplast + PEG; for # Of calli in 3 beads, # / # Of calli in 3 beads, % / # of calli in 3 beads, # / # of calli in 3 beads, %: one month; for # Of calli in 3 beads, % / # of calli in 3 beads, %: % of average control; for # of calli in 3 beads, # / # of calli in 3 beads, %: Stop-GFP + Correcting GRON
# Protocol: Herbicide selection experiments were performed to determine the concentration of herbicide necessary to kill protoplast derived microcalli in a defined treatment period. […] The herbicide was suspended in DMSO, with the final concentration of DMSO in the herbicide treatments being 1%. Development of cells was evaluated under the microscope once a week. […] A flumioxazin concentration of 0.032 mM is sufficient to prevent microcallus development from potato protoplasts.
# About 200 shoot tips of 2-8 week-old in vitro shoots that have been cultured under a regular day/night regime, or, preferably were kept for two days before protoplast isolation in the dark, shoots may be cut into small pieces with a scalpel in a petri dish with sterile water. After all tips have been cut, the water is replaced with protoplast culture medium, preferably BN (B5 Salts and Vitamins (Phytotechnology Laboratories), glucose 20 g/L, mannitol 70 g/L, alpha naphthalene acetic acid 5 mg/L, additional CaCl2×2H2O 600 mg/L, casein hydrolysate 250 mg/L, cystcine-HCL 10 mg/L, polyvinylpyrrolidone (MW 10,000) 5 g/L. After approximately 1-2 h, the protoplast culture medium is replaced with enzyme solution, for example consisting of medium BN, in which 0.5% (w/v) Cellulase YC and 0.75% (w/v) Maccrozyme R10 (both from Karlan Research Products, Cottonwood, Ariz.), 1 g/L bovine serum albumin, and 1 g/L 2-morpholinoethanesulfonic acid are dissolved. The ratio of the number of shoot tips over the volume of enzyme solution can be between 10 and 16, preferably 13. The dish with shoot tip pieces in enzyme solution is incubated for at 25° C.-30° C., preferably 28° C., in darkness on a shaker set to about 50 rpm. After overnight incubation the protoplast suspension is purified using an iodixanol density gradient (adapted from Optiprep Application Sheet C18; Purification of Intact Plant Protoplasts; Axis-Shield USA, 10 Commerce Way, Norton, Mass. 02776). After the density gradient centrifugation, the band with purified protoplasts is removed together with about 5 mL W5 medium (Frigerio et al., 1998). The protoplast density and yield are determined with a hemocytometer. The protoplasts density is adjusted to 1×10^6/mL in BN medium containing 2 mg/L 2,6-dichlorobenzonitrile (cellulose synthase inhibitor), and the protoplasts are cultured in darkness at 30° C. for about 16 h.
# 1. Fast growing cell suspensions are used, preferably three days after their last subculture. 1.5 mL settled cell volume is transferred to about 15 ml BN medium, which after 2 h is replaced with enzyme solution. 2. The protoplast purification is followed immediately by the GRON/PEG treatment.
# The protoplast suspension is mixed with an equal volume of W5 medium, transferred to a 50 mL centrifuge tube, and centrifuged for 10 min at the lowest setting of a clinical centrifuge (about 50×g). The supernatant is removed and replaced with TM medium (Klaus, S. Markerfreie transplastome Tabakpflanzen (Marker-free transplastomic tobacco plants). PhD Dissertation, 2002, Ludwig-Maximilians-Universitát Múnchen, 109 pp), adjusting the protoplast density to 5×10^6/mL. Aliquots of 100 μL containing 5×10^5 protoplasts each are distributed into 12 mL round bottom centrifuge tubes. GRONs (such as those shown in Table 14) targeted at one or more mutations in one or both of the mitochondrial and plastidal PPX genes are then introduced into the protoplasts using a PEG treatment. To introduce the GRONs into the protoplasts, 12.5 μg GRON dissolved in 25 μL purified water and 125 μL of a polyethylene glycol solution (5 g PEG MW 1500, 638 mg mannitol, 207 mg CaNO3×4H2O and 8.75 mL purified water; pH adjusted to about 9.0) is added. After a 10-30 min incubation on ice, the protoplast-PEG suspension is washed with W5 medium and resuspended in medium BN. The suspension is kept overnight in darkness at room temperature.
# One day after the GRON introduction, protoplasts are embedded in calcium alginate. […]
structure (smiles),measurement,setting,value
C#CCN1C(=O)COc2cc(F)c(N3C(=O)C4=C(CCCC4)C3=O)cc21 [flumioxazin],concentration sufficient to prevent microcallus development from potato protoplasts,,0.032 mM
same,"# Of calli in 3 beads, #",flumioxazin 0.0156 μM,40
same,"# Of calli in 3 beads, %",flumioxazin 0.0156 μM,25%
same,"# Of calli in 3 beads, #",flumioxazin 0.0312 μM,8
same,"# Of calli in 3 beads, %",flumioxazin 0.0312 μM,5%
same,"# Of calli in 3 beads, #",flumioxazin 0.0468 μM,0.0
same,"# Of calli in 3 beads, %",flumioxazin 0.0468 μM,0.0%
same,"# Of calli in 3 beads, #",flumioxazin 0.0624 μM,0
same,"# Of calli in 3 beads, %",flumioxazin 0.0624 μM,0%
same,"# of calli in 3 beads, #",flumioxazin 0.0156 μM,83
same,"# of calli in 3 beads, %",flumioxazin 0.0156 μM,39%
same,"# of calli in 3 beads, #",flumioxazin 0.0312 μM,11
same,"# of calli in 3 beads, %",flumioxazin 0.0312 μM,4%
same,"# of calli in 3 beads, #",flumioxazin 0.0468 μM,0.0
same,"# of calli in 3 beads, %",flumioxazin 0.0468 μM,0.0%
same,"# of calli in 3 beads, #",flumioxazin 0.0624 μM,0
same,"# of calli in 3 beads, %",flumioxazin 0.0624 μM,0%
same,microcalli development after one month,"any concentration tested, 1% DMSO",no microcalli developed at any concentration tested
same,concentration sufficient to kill all cells within a week,initial kill curve,125 µM
